Bounds are passed on as bounds.

This experiment deals with Ubiquitin carboxyl-terminal hydrolase 9X (Homo sapiens, UniProt Q93008). As to the kind of experiment: Inhibition of USP9X (unknown origin) using Ubiquitin-Rhoadmine 110 as substrate preincubated for 30 mins followed by substrate addition and measured after 11 mins by fluorescence assay. The experiment is classed as single protein.
Chain of Ubiquitin carboxyl-terminal hydrolase 9X (Q93008 whole entry): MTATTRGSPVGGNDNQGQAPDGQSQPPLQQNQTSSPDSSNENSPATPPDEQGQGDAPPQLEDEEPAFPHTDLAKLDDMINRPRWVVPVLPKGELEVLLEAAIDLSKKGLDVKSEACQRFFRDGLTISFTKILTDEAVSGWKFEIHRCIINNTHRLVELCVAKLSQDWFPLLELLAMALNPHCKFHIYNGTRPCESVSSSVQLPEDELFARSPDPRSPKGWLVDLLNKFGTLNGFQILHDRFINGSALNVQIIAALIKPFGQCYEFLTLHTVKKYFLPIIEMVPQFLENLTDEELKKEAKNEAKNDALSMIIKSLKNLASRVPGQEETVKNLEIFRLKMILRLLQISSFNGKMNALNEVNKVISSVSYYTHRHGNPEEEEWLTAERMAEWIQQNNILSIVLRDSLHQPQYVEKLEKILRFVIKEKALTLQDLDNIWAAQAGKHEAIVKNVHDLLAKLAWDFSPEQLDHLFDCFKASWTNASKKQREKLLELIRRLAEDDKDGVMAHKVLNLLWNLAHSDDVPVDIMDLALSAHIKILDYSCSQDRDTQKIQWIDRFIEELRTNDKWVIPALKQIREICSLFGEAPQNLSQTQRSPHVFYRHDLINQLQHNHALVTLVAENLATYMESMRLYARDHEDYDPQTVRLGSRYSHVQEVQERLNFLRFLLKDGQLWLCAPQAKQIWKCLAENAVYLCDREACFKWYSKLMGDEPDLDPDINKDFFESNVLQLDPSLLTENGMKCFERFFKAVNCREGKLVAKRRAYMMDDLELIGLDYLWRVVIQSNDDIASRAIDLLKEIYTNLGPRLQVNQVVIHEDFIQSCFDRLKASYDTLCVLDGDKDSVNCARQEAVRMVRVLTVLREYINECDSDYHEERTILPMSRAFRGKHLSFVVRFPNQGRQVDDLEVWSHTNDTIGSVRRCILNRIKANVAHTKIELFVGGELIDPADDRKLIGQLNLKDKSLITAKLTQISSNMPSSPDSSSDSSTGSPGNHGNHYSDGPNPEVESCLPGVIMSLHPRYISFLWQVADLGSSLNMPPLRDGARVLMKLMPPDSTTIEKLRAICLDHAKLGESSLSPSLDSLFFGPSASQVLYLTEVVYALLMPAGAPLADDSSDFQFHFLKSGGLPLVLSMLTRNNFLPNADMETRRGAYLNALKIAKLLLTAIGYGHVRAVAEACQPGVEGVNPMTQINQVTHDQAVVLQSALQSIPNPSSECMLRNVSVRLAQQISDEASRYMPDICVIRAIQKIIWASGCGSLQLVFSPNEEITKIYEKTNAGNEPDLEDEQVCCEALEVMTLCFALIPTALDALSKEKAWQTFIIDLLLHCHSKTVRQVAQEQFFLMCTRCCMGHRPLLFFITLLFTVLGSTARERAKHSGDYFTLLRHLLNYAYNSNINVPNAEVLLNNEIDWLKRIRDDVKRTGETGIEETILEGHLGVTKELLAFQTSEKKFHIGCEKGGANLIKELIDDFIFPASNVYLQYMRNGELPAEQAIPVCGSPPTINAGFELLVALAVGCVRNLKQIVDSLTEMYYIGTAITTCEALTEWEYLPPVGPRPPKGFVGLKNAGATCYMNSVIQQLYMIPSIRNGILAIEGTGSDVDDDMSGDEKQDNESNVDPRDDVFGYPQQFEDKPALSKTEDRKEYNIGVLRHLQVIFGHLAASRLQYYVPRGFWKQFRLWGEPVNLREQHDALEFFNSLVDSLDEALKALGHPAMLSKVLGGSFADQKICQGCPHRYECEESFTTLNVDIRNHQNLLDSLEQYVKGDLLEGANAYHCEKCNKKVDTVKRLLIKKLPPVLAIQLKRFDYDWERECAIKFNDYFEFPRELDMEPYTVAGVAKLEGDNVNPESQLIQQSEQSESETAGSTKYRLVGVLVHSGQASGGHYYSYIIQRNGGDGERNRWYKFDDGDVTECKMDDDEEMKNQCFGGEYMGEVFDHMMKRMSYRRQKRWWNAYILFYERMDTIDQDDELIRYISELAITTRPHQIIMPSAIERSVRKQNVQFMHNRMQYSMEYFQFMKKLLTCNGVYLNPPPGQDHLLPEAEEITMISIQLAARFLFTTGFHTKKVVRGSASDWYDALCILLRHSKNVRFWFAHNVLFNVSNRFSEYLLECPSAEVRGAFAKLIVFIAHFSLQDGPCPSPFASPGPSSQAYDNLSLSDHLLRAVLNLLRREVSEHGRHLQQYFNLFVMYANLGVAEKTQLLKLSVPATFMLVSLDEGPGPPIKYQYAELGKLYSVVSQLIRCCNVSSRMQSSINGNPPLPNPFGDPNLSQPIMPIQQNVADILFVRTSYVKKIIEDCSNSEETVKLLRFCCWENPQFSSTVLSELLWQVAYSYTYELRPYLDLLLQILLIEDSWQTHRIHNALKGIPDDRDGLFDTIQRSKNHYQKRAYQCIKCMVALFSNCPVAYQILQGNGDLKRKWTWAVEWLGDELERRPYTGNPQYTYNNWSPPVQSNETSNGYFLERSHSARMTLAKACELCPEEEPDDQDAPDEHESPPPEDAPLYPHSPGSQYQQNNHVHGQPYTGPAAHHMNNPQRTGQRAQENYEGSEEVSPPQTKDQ

In the case of `COc1ccc(S(=O)(=O)N2CCc3nn(C(=O)[C@@H](O)c4ccccc4)cc3C2)cc1O`, the IC50 was over 25 µM.

Turning to `C[C@@H](c1ccccc1)N1Cc2cc(S(=O)(=O)c3ccc4c(c3)OCCO4)ccc2C1=O`, the IC50 is over 25 µM.

For `O=S(=O)(c1ccc(-n2ccnc2)cc1)N1Cc2cnc(C(O)c3ccccc3)cc2C1` (centres undefined), the IC50 is over 25 µM.

In turn, `O=S(=O)(C1CCN(c2nccs2)CC1)N1Cc2cnc(C(O)c3ccccc3)cc2C1` (centres undefined) registered an IC50 of over 25 µM.

With `O=S(=O)(C1CCN(c2ncco2)CC1)N1Cc2cnc(C(O)c3ccccc3)cc2C1` (centres undefined), the IC50 was over 25 µM.

In the case of `O=C(c1cccc(Cl)c1)c1cc2c(cn1)CN(S(=O)(=O)c1ccc3c(c1)OCCO3)C2`, the IC50 is over 25 µM.

In turn, `O=C([C@@H](O)c1ccccc1)N1CCc2c(cnn2S(=O)(=O)c2ccc3c(c2)OCCO3)C1` had an IC50 of over 25 µM.

Consider `O=S(=O)(c1ccccc1)c1cc2c(cn1)CN(S(=O)(=O)c1ccc(-c3ncco3)cc1)C2`, for which the IC50 is over 25 µM.

`OC(c1ccccc1)c1cc2c(cn1)CN(Cc1ccc3c(c1)OCCO3)C2` (centres undefined): the IC50 is over 25 µM.

For the origin of these results see ChEMBL document CHEMBL5050849 (2020).
